# Source: PubChem BioAssay AID1963849 (Molecular Pharmacology Branch, DTP, NCI, 2024)
# System: 299254-011-R-J1-PDC complex spheroid viability
# Experiment: Anticancer human tumor 299254-011-R-J1-PDC patient-derived melanoma cell line growth inhibition [POLQ]
# Conditions: for IC50: curve of first compound; for viability, T/C: stronger effect = lower value
# In short: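 Complex spheroid viability model combining PDC tumour cells with endothelial (HUVEC) and MSC stromal cells. Novobiocin, ART-558 or RP6685 were tested singly and in combination with standard and investigational anticancer drugs. Each was titrated in half-log steps from near clinical Cmax, or from 10 microM where Cmax was unknown.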
# [1] = second compound 0.0316 µM, first compound 0.0316 µM
# [2] = second compound 0.0316 µM, first compound 0.1 µM
# [3] = second compound 0.0316 µM, first compound 0.316 µM
# [4] = second compound 0.0316 µM, first compound 1 µM
# [5] = second compound 0.0316 µM, first compound 3.16 µM
# [6] = second compound 0.0316 µM, first compound 10 µM
# [7] = second compound 0.1 µM, first compound 0.0316 µM
# [8] = second compound 0.1 µM, first compound 0.1 µM
# [9] = second compound 0.1 µM, first compound 0.316 µM
# [10] = second compound 0.1 µM, first compound 1 µM
# [11] = second compound 0.1 µM, first compound 3.16 µM
# [12] = second compound 0.1 µM, first compound 10 µM
# [13] = second compound 0.316 µM, first compound 0.0316 µM
# [14] = second compound 0.316 µM, first compound 0.1 µM
# [15] = second compound 0.316 µM, first compound 0.316 µM
# [16] = second compound 0.316 µM, first compound 1 µM
# [17] = second compound 0.316 µM, first compound 3.16 µM
# [18] = second compound 0.316 µM, first compound 10 µM
# [19] = second compound 1 µM, first compound 0.0316 µM
# [20] = second compound 1 µM, first compound 0.1 µM
# [21] = second compound 1 µM, first compound 0.316 µM
# [22] = second compound 1 µM, first compound 1 µM
# [23] = second compound 1 µM, first compound 3.16 µM
# [24] = second compound 1 µM, first compound 10 µM
# [25] = second compound 3.16 µM, first compound 0.0316 µM
# [26] = second compound 3.16 µM, first compound 0.1 µM
# [27] = second compound 3.16 µM, first compound 0.316 µM
# [28] = second compound 3.16 µM, first compound 1 µM
# [29] = second compound 3.16 µM, first compound 3.16 µM
# [30] = second compound 3.16 µM, first compound 10 µM
# [31] = second compound 10 µM, first compound 0.0316 µM
# [32] = second compound 10 µM, first compound 0.1 µM
# [33] = second compound 10 µM, first compound 0.316 µM
# [34] = second compound 10 µM, first compound 1 µM
# [35] = second compound 10 µM, first compound 3.16 µM
# [36] = second compound 10 µM, first compound 10 µM
# 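Further: spheroids exposed to drugs for one week before measurement.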
# 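Wherever viability, T/C is given: percent viability relative to DMSO vehicle control taken as 100%.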
smiles,measurement,setting,value
COc1ccc([C@@H](O)c2cc(-c3ncnc4cc(N5CCOCC5)ccc34)c(F)cc2Cl)nn1 + COC1C(OC(N)=O)C(O)C(Oc2ccc3c(O)c(NC(=O)c4ccc(O)c(CC=C(C)C)c4)c(=O)oc3c2C)OC1(C)C,IC50,second compound 0.0316 µM,9.66 µM
same,IC50,second compound 0.1 µM,8.91 µM
same,IC50,second compound 0.316 µM,8.8 µM
same,IC50,second compound 1 µM,> 10 µM
same,IC50,second compound 3.16 µM,> 10 µM
same,IC50,second compound 10 µM,8.74 µM
same,"viability, T/C",[1],103%
same,"viability, T/C",[2],90.6%
same,"viability, T/C",[3],97.7%
same,"viability, T/C",[4],109%
same,"viability, T/C",[5],102%
same,"viability, T/C",[6],48.3%
same,"viability, T/C",[7],115%
same,"viability, T/C",[8],109%
same,"viability, T/C",[9],114%
same,"viability, T/C",[10],99%
same,"viability, T/C",[11],89.8%
same,"viability, T/C",[12],45.4%
same,"viability, T/C",[13],116%
same,"viability, T/C",[14],125%
same,"viability, T/C",[15],118%
same,"viability, T/C",[16],106%
same,"viability, T/C",[17],86.7%
same,"viability, T/C",[18],45.4%
same,"viability, T/C",[19],118%
same,"viability, T/C",[20],107%
same,"viability, T/C",[21],101%
same,"viability, T/C",[22],110%
same,"viability, T/C",[23],90.6%
same,"viability, T/C",[24],54.5%
same,"viability, T/C",[25],128%
same,"viability, T/C",[26],96.3%
same,"viability, T/C",[27],109%
same,"viability, T/C",[28],103%
same,"viability, T/C",[29],85.1%
same,"viability, T/C",[30],51.1%
same,"viability, T/C",[31],107%
same,"viability, T/C",[32],107%
same,"viability, T/C",[33],105%
same,"viability, T/C",[34],87.1%
same,"viability, T/C",[35],92.9%
same,"viability, T/C",[36],44%
CCc1cc2c(N3CCc4c(cc(Cn5ccnc5)cc4-c4cn(C)nc4C(F)(F)F)C3=O)cc(C)nc2c(OC)n1 + COC1C(OC(N)=O)C(O)C(Oc2ccc3c(O)c(NC(=O)c4ccc(O)c(CC=C(C)C)c4)c(=O)oc3c2C)OC1(C)C,IC50,second compound 0.0316 µM,> 10 µM
same,IC50,second compound 0.1 µM,> 10 µM
same,IC50,second compound 0.316 µM,> 10 µM
same,IC50,second compound 1 µM,> 10 µM
same,IC50,second compound 3.16 µM,> 10 µM
same,IC50,second compound 10 µM,> 10 µM
same,"viability, T/C",[1],96.8%
same,"viability, T/C",[2],96.1%
same,"viability, T/C",[3],109%
same,"viability, T/C",[4],81.1%
same,"viability, T/C",[5],91.5%
same,"viability, T/C",[6],69.5%
same,"viability, T/C",[7],99.8%
same,"viability, T/C",[8],95.3%
same,"viability, T/C",[9],104%
same,"viability, T/C",[10],108%
same,"viability, T/C",[11],107%
same,"viability, T/C",[12],63.9%
same,"viability, T/C",[13],107%
same,"viability, T/C",[14],121%
same,"viability, T/C",[15],103%
same,"viability, T/C",[16],106%
same,"viability, T/C",[17],88.4%
same,"viability, T/C",[18],66.8%
same,"viability, T/C",[19],116%
same,"viability, T/C",[20],110%
same,"viability, T/C",[21],114%
same,"viability, T/C",[22],99.6%
same,"viability, T/C",[23],94.5%
same,"viability, T/C",[24],67.4%
same,"viability, T/C",[25],106%
same,"viability, T/C",[26],107%
same,"viability, T/C",[27],100%
same,"viability, T/C",[28],106%
same,"viability, T/C",[29],99.2%
same,"viability, T/C",[30],70.6%
same,"viability, T/C",[31],96.3%
same,"viability, T/C",[32],105%
same,"viability, T/C",[33],110%
same,"viability, T/C",[34],106%
same,"viability, T/C",[35],93.5%
same,"viability, T/C",[36],73.9%
C#Cc1c(F)ccc2cc(O)cc(-c3ncc4c(N5CC6CCC(C5)N6)nc(OCC56CCCN5CC(F)C6)nc4c3F)c12 (stereo unspecified) + COC1C(OC(N)=O)C(O)C(Oc2ccc3c(O)c(NC(=O)c4ccc(O)c(CC=C(C)C)c4)c(=O)oc3c2C)OC1(C)C,IC50,second compound 0.0316 µM,> 10 µM
same,IC50,second compound 0.1 µM,> 10 µM
same,IC50,second compound 0.316 µM,> 10 µM
same,IC50,second compound 1 µM,> 10 µM
same,IC50,second compound 3.16 µM,> 10 µM
same,IC50,second compound 10 µM,> 10 µM
same,"viability, T/C",[1],87.2%
same,"viability, T/C",[2],125%
same,"viability, T/C",[3],105%
same,"viability, T/C",[4],115%
same,"viability, T/C",[5],96.4%
same,"viability, T/C",[6],79.7%
same,"viability, T/C",[7],102%
same,"viability, T/C",[8],99.2%
same,"viability, T/C",[9],99.2%
same,"viability, T/C",[10],114%
same,"viability, T/C",[11],94.8%
same,"viability, T/C",[12],80.9%
same,"viability, T/C",[13],110%
same,"viability, T/C",[14],104%
same,"viability, T/C",[15],107%
same,"viability, T/C",[16],114%
same,"viability, T/C",[17],105%
same,"viability, T/C",[18],72.7%
same,"viability, T/C",[19],104%
same,"viability, T/C",[20],98.2%
same,"viability, T/C",[21],105%
same,"viability, T/C",[22],136%
same,"viability, T/C",[23],102%
same,"viability, T/C",[24],79.4%
same,"viability, T/C",[25],114%
same,"viability, T/C",[26],109%
same,"viability, T/C",[27],106%
same,"viability, T/C",[28],109%
same,"viability, T/C",[29],101%
same,"viability, T/C",[30],70.6%
same,"viability, T/C",[31],93.9%
same,"viability, T/C",[32],99.7%
same,"viability, T/C",[33],111%
same,"viability, T/C",[34],101%
same,"viability, T/C",[35],111%
same,"viability, T/C",[36],69.2%
